Structures are written as SMILES.

One experiment deals with T1, MMP-3 (Homo sapiens, UniProt P08254).
T1 construct: made in house; host or cells: CHO cells
The class given is biochemical. The conditions noted are these: 6 µM P218 substrate, pH 6.5, 25 min at 37°C; calculated from IC50; read-out: MMP-3 Kf. The text has this: (§1) The P218 quenched fluorescence assay (Microfluorometric Profiling Assay) is a modification of that originally described by Knight, et al., FEBS Lett. 296, 263, 1992 for a related substance and a variety of matrix metalloproteinases (MMPs) in cuvettes. The assay was run with each invention compound and the three MMPs, Mmp-3, MMP-9 and MMP-2, analyzed in parallel, adapted as follows for a 96-well microtiter plate and a Hamilton AT® workstation. P218 Fluorogenic Substrate: P218 is a synthetic substrate containing a 4-acetyl-7-methoxycoumarin (MCA) group in the N-terminal position and a 3-[2, 4-dinitrophenyl]-L-2,3-diaminopropionyl (DPA) group internally. This is a modification of a peptide reported by Knight (1992) that was used as a substrate for matrix metalloproteinases. Once the P218 peptide is cleaved (putative clip site at the Ala-Leu bond), the fluorescence of the MCA group can be detected on a fluorometer with excitation at 328 nm and emission at 393 nm. P218 is currently being produced BACHEM exclusively for Bayer. P218 has the structure: H-MCA-Pro-Lys-Pro-Leu-Ala-Leu-DPA-Ala-Arg-NH2 (MW 1332.2)
Recombinant Human CHO Pro-MMP-3: Human CHO pro-stromelysin-257 (pro-MMP-3) was expressed and purified as described by Housley, et al., J. Biol. Chem. 268, 4481, 1993.
Activation of Pro-MMP-3 Pro-MMP-3 at 1.72 µM (100 µg/mL) in 5 mM Tris at pH 7.5, 5 mM CaCl2, 25 mM NaCl, and 0.005% Brij-35 (MMP-3 activation buffer) was activated by incubation with TPCK (N-tosyl-(L)-phenylalanine chloromethyl ketone) trypsin (1:100 w/w to pro-MMP-3) at 25 °C for 30 min. The reaction was stopped by addition of soybean trypsin inhibitor (SBTI: 5:1 w/w to trypsin concentration). This activation protocol results in the formation of 45 kDa active MMP-3, which still contains the C-terminal portion of the enzyme.
(§2) Hamiltion Microlab AT P!us: The MMP-Profiling Assay is performed robotically on a Hamilton MicroLab AT Plus®. The Hamilton is programmed to: (1) serially dilute up to 11 potential inhibitors automatically from a 2.5 mM stock in 100% DMSO; (2) distribute substrate followed by inhibitor into a 96 well Cytofluor plate; and (3) add a single enzyme to the plate with mixing to start the reaction. Subsequent plates for each additional enzyme are prepared automatically by beginning the program at the substrate addition point, remixing the diluted inhibitors and beginning the reaction by addition of enzyme. In this way, all MMP assays were done using the same inhibitor dilutions.
(§3) Millipore Cytofluor II. Following incubation, the plate was read on a Cytofluor II fluorometric place reader with excitation at 340 nm and emission at 395 nm with the gain set at 80.
(§4) Microfluorometric Reaction Buffer (MRB): Dilution of test compounds, enzymes, and P218 substrate for the microfluorometric assay were made in microfluorometric reaction buffer consisting of 50 mM 2-(N-morpholino)ethanesulfonic acid (MES) at pH 6.5 with 10 mM CaCl2, 150 mM NaCl, 0.005% Brij-35 and 1% DMSO.
(§5) MMP Microfluorometric Profiling Assay. The assay is done with a final substrate concentration of 6 µM P218 and approximately .5 to .8 nM MMP with variable drug concentrations. The Hamilton is programmed to serially dilute up to 11 compounds from a 2.5 mM stock (100% DMSO) to 10x the final compounds concentrations in the assay. Initially, the instrument delivers various amounts of microfluoromentric reaction buffer (MRB) to a 96 tube rack of 1 ml Marsh dilution tubes. The instrument then picks up 20 µl of inhibitor (2.5 mM) from the sample rack and mixes it with a buffer in row A of the Marsh rack, resulting in a 50 µM drug concentration. The inhibitors are then serially diluted to 10, 5, 1, .2, .05 and .01 µM. Position 1 on the sample rack contains only DMSO for the "enzyme-only" wells in the assay, which results in no inhibitor in column 1, rows A through H. The instrument then distributes 107 µl of P218 substrate (8.2 µM in MRB) to a single 96 well cytofluor microtiter plate. […]

The target of another experiment is T2, MMP-9 (Homo sapiens, UniProt P14780).
T2 construct: made in house
The class given is biochemical. The conditions noted are these: 6 µM P218 substrate, pH 6.5, 25 min at 37°C; calculated from IC50; read-out: MMP-9 Kf.
Text: as §1
Recombinant Human Pro-MMP-9: Human pro-gelatinase B (pro-MMP-9) derived from U937 cDNA as described by Wilhelm, et al. J. Biol. Chem. 264, 17213, 1989 was expressed as the full-length form using a baculovirus protein expression system. The pro-enzyme was purified using methods previously described by Hibbs, et al. J. Biol. Chem. 260, 2493, 1984.
Activation of Pro-MMP-9: […] 20 µg/mL in 50 mM Tris at pH 7.4, 10mM CaCl2, 150 mM NaCl, and 0.005% Brij-35 (MMP-9 activation buffer) was activated by incubation with 0.5 mM p-aminophenylmercuric acetate (APMA) for 3.5 h at 37 °C. The enzyme was dialyzed against the same buffer to remove the APMA.
as §2, §3, §4, §5

The target in the next experiment is T3, MMP-2 (Homo sapiens, UniProt P08253).
T3 sequence (P08253 110-660): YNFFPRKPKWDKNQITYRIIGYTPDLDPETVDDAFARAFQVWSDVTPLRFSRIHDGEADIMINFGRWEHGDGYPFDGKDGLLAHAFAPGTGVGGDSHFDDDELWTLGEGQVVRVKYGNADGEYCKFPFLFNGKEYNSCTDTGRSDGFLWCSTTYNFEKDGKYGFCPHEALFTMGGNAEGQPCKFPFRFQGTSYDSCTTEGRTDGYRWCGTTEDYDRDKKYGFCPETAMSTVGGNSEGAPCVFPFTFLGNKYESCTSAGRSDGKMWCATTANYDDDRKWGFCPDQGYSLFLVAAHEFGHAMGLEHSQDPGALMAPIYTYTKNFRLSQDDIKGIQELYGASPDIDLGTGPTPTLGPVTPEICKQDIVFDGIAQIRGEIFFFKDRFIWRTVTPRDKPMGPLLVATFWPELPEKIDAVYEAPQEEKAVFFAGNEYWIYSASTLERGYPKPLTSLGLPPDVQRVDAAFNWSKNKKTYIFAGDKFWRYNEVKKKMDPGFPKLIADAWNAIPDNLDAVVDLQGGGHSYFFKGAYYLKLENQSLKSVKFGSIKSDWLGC
As to the kind of experiment: biochemical.

T2 sequence (P14780 107-707 limits assumed): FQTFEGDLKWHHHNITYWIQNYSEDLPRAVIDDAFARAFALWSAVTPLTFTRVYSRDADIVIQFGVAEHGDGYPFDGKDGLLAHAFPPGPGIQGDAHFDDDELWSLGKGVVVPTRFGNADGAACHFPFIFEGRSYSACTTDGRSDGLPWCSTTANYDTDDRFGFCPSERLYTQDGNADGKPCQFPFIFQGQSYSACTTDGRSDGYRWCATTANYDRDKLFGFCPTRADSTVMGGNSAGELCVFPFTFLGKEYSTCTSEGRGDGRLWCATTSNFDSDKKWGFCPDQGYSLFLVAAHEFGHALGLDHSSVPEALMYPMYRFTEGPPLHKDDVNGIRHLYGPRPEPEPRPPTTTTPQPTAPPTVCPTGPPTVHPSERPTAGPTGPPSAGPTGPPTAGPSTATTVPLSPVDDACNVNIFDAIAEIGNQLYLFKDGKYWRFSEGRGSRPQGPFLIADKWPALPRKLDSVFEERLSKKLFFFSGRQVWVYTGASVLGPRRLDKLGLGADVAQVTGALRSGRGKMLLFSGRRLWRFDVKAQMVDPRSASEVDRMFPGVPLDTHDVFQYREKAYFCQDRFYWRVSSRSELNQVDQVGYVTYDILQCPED
T1 sequence (P08254 100-477): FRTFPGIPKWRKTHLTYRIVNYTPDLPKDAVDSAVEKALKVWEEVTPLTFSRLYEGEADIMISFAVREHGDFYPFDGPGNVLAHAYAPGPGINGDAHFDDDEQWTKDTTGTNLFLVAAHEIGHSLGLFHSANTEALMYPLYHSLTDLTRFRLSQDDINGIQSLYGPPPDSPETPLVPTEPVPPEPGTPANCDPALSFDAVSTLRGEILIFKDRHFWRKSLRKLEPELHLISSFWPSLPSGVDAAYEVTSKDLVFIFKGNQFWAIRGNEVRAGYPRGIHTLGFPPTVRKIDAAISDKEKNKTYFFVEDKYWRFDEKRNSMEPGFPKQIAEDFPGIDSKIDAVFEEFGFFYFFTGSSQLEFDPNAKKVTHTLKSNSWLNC

With `CCOC(=O)CN(C)C(=O)c1cccc(CCC(CC(=O)c2ccc(-c3ccc(Cl)cc3)cc2)C(=O)O)c1` (stereo not drawn) [XVI, 4'-chloro-α-[2-[3-[[(2-ethoxy-2-oxoethyl)methylamino]carbonyl]phenyl]ethyl]-γ-oxo-[1,1'-biphenyl]-4-butanoic acid], the results for the Ki on MMP-3, at MMP-9 and at MMP-2 were 24.8 nM, 137 nM and 9.86 nM, respectively.

With `O=C(O)CNC(=O)c1ccccc1CCC(CC(=O)c1ccc(-c2ccc(Cl)cc2)cc1)C(=O)O` (stereo not drawn) [Compound XXIII, α-[2-[2-[[(2-carboxymethyl)amino]carbonyl]phenyl]ethyl]-4'-chloro-γ-oxo-[1,1'-biphenyl]-4-butanoic acid], the figures for the Ki at MMP-3, on MMP-9 and at MMP-2 were 259 nM, 1590 nM and 96 nM, respectively.

Take `CCOC(=O)CN(C)C(=O)c1ccccc1CCC(CC(=O)c1ccc(-c2ccc(Cl)cc2)cc1)C(=O)O` (stereo not drawn) [IX, 4'-chloro-α-[2-[2-[[(2-ethoxy-2-oxoethyl)methylamino]carbonyl]phenyl]ethyl]-γ-oxo-[1,1'-biphenyl]-4-butanoic acid]: the figures for the Ki on MMP-3, at MMP-9 and on MMP-2 were 43.6 nM, 254 nM and 17.5 nM, respectively.

Take `O=C(CC(CCc1ccccc1C(=O)NCc1ccccc1)C(=O)O)c1ccc(-c2ccc(Cl)cc2)cc1` (stereo not drawn) [III, 4'-chloro-γ-oxo-α-[2-[2-[[(phenylmethyl)amino]carbonyl]phenyl]ethyl]-[1,1'-biphenyl]-4-butanoic acid]: the Ki on MMP-3 was 174 nM; at MMP-9 it was 475 nM; on MMP-2 it was 60.3 nM.

Take `O=C(CC(CCc1ccccc1C(=O)NCCCc1ccccc1)C(=O)O)c1ccc(-c2ccc(Cl)cc2)cc1` (stereo not drawn) [IV, 4'-chloro-γ-oxo-α-[2-[2-[[(3-phenylpropyl)amino]carbonyl]phenyl]ethyl]-[1,1'-biphenyl]-4-butanoic acid]: the Ki was 175 nM at MMP-3, 246 nM on MMP-9 and 68.7 nM on MMP-2.

With `CC(C)CCNC(=O)c1ccccc1CCC(CC(=O)c1ccc(-c2ccc(Cl)cc2)cc1)C(=O)O` (stereo not drawn) [VI, 4'-chloro-α-[2-[2-[[(3-methylbutyl)amino]carbonyl]phenyl]ethyl]-γ-oxo-[1,1'-biphenyl]-4-butanoic acid], the figures for the Ki on MMP-3, on MMP-9 and on MMP-2 were 214 nM, 431 nM and 58.1 nM, respectively.

For `O=C(CC(CCc1ccccc1C(=O)N1CCCCC1)C(=O)O)c1ccc(-c2ccc(Cl)cc2)cc1` (stereo not drawn) [V, 4'-chloro-γ-oxo-α-[2-[2-(1-piperidinylcarbonyl)phenyl]ethyl]-[1,1'-biphenyl]-4-butanoic acid], the values for the Ki on MMP-3, at MMP-9 and at MMP-2 were 54.7 nM, 146 nM and 13.8 nM, respectively.

The record behind these values is EP0907632B1, “INHIBITION OF MATRIX METALLOPROTEASES BY SUBSTITUTED PHENETHYL COMPOUNDS” (Bayer Corporation, priority 1996, dated 1997).
